# Data published in patent US20090137572A1, “2-substituted-4-heteroaryl-pyrimidines useful for the treatment of proliferative disorders” (priority 2004, published 2009).
# Experiments:
# [1] = biological target: T1, Aurora A kinase (Homo sapiens, UniProt O14965); assay: Aurora-A (human) kinase assay (Kemptide substrate); assay type: biochemical; conditions: pIC50 is -log(IC50, M); 15 μM ATP; read-out: Kinase Inhibition pIC50 Aurora A kinase (converted)
# T1 construct: purchased
# T1 sequence (O14965 1-403): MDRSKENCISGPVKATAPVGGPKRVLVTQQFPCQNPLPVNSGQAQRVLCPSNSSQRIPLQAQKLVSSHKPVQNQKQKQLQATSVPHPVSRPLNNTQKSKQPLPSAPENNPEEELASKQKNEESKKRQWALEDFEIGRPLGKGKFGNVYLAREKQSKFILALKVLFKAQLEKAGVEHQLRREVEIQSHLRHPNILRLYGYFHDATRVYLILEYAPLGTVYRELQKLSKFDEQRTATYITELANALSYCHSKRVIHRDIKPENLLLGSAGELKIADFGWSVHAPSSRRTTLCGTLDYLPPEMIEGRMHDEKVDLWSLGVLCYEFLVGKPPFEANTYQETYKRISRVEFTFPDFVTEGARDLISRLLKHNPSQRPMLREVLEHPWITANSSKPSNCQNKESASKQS
# Summary of the method: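 Kemptide (LRRASLG, 200 μM) phosphorylation by 5-10 ng commercial aurora-A measured as [γ-33P] incorporation at 15 μM ATP with 10 mM Mg acetate, pH 7.0 MOPS buffer. Reaction ran 40 min at room temperature; acid-stopped, captured on P81 filters, scintillation read.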
# [2] = biological target: CDK4-cyclin D1 (Homo sapiens, UniProt P11802); assay: Kinase assay (radioactive phosphate incorporation), CDK4-cyclin D1; assay type: biochemical; conditions: read-out: Kinase Inhibition pIC50 CDK4-cyclin D1 (converted)
# Sequence of CDK4-cyclin D1 (P11802 whole entry): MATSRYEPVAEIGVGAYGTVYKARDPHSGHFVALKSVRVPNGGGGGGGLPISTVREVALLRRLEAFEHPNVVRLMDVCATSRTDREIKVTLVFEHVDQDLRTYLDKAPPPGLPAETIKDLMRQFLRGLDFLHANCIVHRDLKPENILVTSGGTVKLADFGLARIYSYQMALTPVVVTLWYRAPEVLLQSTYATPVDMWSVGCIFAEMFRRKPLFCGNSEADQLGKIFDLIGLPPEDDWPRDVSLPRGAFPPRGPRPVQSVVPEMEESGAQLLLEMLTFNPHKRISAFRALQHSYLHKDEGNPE
# Sequence of CDK4-cyclin D1 (P24385 whole entry partner): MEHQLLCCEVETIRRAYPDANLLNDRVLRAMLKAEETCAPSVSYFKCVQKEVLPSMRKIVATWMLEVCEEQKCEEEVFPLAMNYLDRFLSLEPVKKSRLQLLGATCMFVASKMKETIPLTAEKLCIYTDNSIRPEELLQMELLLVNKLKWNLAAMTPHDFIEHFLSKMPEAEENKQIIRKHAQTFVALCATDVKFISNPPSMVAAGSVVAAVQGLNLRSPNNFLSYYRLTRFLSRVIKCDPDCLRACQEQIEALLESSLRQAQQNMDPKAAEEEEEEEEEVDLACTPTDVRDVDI
# Summary of the method: (§1)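 Inhibition measured as 32P transfer from ATP (100 μM, 15 mM MgCl2) onto peptide substrates at 30° C. Each assay used 2-4 μg active recombinant enzyme in pH 7.4 buffer. Reactions stopped on ice, filtered, acid-washed and counted; compounds diluted into 10% DMSO in assay buffer.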
# [3] = biological target: CDK1-cyclin B (Homo sapiens, UniProt P06493); assay: Kinase assay (radioactive phosphate incorporation), CDK1-cyclin B; assay type: biochemical; conditions: read-out: Kinase Inhibition pIC50 CDK1-cyclin B (converted)
# Sequence of CDK1-cyclin B (P06493 whole entry): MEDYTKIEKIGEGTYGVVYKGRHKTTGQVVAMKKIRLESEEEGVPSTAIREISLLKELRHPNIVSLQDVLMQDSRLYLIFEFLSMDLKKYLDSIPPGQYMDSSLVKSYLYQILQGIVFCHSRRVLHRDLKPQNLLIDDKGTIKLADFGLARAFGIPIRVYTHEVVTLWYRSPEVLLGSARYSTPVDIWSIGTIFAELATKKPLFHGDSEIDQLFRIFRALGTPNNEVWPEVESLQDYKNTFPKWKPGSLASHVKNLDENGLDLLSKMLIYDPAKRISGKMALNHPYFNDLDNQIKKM
# Sequence of CDK1-cyclin B (P14635 whole entry partner): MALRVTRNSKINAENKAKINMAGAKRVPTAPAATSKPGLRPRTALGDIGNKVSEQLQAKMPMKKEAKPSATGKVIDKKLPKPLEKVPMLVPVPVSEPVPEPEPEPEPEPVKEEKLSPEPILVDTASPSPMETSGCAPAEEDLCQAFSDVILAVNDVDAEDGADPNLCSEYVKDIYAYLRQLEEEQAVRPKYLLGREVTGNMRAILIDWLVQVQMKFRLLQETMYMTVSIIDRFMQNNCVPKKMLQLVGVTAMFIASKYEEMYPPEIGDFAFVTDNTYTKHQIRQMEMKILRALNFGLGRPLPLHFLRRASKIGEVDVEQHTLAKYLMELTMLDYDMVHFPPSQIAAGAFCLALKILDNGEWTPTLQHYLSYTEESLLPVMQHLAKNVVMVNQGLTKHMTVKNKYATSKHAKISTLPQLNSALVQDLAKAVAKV
# Summary of the method: as §1
# [4] = biological target: CDK7/cyclin H (Homo sapiens, UniProt P50613); assay: CDK 7 assay (CTD peptide substrate); assay type: biochemical; conditions: read-out: Kinase Inhibition pIC50 CDK7-cyclin H (converted)
# Sequence of CDK7/cyclin H (P50613 whole entry): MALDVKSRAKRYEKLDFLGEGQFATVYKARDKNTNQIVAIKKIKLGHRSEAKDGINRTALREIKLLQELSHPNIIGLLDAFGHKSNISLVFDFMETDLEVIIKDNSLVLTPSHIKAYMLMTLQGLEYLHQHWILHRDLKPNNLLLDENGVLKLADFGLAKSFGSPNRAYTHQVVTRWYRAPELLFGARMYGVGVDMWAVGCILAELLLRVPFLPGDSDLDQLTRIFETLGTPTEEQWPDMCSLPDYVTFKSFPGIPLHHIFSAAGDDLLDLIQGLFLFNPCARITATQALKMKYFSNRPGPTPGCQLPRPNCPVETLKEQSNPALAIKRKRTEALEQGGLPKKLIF
# Sequence of CDK7/cyclin H (P51946 whole entry partner): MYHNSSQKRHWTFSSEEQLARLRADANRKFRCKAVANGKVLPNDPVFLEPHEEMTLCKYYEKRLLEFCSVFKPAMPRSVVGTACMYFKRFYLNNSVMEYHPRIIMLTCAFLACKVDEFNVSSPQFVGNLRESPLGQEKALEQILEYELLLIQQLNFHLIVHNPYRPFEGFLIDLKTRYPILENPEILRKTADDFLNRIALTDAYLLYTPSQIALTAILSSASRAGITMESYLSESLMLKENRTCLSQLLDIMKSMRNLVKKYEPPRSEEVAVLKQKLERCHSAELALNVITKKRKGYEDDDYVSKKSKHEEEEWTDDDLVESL
# Summary of the method: (§2)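 32P transfer from 100 μM ATP (trace [γ-32P]ATP) to a biotinyl CTD (YSPTSPS)4 peptide was measured after 45 min at 30 °C in pH 7.2 MOPS buffer, 15 mM MgCl2, using recombinant human CDK7/cyclin H or CDK9/cyclin T1. Signal read by filter binding and scintillation counting.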
# [5] = biological target: GSK3b (Homo sapiens, UniProt P49841); assay: Kinase assay (radioactive phosphate incorporation), GSK-3b; assay type: biochemical; conditions: read-out: Kinase Inhibition pIC50 GSK-3b (converted)
# Sequence of GSK3b (P49841 whole entry, species assumed): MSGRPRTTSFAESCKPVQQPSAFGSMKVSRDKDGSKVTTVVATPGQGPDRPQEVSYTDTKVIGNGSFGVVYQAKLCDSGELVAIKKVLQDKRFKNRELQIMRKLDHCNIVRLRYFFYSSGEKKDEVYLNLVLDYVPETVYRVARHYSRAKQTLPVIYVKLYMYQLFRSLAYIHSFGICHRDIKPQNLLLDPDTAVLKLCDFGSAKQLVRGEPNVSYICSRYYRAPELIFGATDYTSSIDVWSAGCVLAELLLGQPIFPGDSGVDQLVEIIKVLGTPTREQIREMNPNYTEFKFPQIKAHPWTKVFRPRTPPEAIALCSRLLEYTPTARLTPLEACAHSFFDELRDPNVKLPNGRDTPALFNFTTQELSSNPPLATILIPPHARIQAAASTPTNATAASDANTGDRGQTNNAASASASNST
# Summary of the method: as §1
# [6] = biological target: CDK2-cyclin A (Homo sapiens, UniProt P24941); assay: Kinase assay (radioactive phosphate incorporation), CDK2-cyclin A; assay type: biochemical; conditions: read-out: Kinase Inhibition pIC50 CDK2-cyclin A (converted)
# Summary of the method: as §1
# [7] = biological target: T2, Flt3 (FMS-like tyrosine kinase-3) (Homo sapiens, UniProt P36888); assay: Kinase assay (radioactive phosphate incorporation), Flt3; assay type: biochemical; conditions: pIC50 is -log(IC50, M), read-out: Kinase Inhibition pIC50 Flt3 (converted)
# T2 sequence (P36888 27-993): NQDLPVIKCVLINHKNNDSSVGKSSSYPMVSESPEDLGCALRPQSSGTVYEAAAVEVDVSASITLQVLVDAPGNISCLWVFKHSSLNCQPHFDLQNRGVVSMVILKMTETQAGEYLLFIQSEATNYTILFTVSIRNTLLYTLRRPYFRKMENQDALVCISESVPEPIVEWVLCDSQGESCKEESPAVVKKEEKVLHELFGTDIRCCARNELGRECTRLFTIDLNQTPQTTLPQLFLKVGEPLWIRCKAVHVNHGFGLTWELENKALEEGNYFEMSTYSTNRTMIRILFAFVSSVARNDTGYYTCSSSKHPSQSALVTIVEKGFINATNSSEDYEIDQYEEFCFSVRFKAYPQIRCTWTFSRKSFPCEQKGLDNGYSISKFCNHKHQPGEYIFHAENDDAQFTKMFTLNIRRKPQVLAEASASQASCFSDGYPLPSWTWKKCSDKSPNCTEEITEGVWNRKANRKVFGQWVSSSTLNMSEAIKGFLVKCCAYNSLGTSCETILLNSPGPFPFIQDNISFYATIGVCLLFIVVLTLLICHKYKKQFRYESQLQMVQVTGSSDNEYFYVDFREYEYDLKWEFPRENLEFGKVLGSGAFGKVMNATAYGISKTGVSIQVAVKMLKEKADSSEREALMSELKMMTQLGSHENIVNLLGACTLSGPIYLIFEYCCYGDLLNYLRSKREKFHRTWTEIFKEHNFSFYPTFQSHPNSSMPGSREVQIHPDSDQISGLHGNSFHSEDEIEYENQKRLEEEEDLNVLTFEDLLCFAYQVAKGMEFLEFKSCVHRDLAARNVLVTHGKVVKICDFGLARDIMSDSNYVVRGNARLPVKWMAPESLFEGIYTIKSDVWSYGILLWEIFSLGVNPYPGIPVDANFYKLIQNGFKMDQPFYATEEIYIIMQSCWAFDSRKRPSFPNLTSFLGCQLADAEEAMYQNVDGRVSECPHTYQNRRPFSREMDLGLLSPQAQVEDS
# Summary of the method: as §1
# [8] = biological target: CDK9/cyclin T1 (Homo sapiens, UniProt P50750); assay: CDK 9 assay (CTD peptide substrate); assay type: biochemical; conditions: read-out: Kinase Inhibition pIC50 CDK9-cyclin T1 (converted)
# Sequence of CDK9/cyclin T1 (P50750 whole entry): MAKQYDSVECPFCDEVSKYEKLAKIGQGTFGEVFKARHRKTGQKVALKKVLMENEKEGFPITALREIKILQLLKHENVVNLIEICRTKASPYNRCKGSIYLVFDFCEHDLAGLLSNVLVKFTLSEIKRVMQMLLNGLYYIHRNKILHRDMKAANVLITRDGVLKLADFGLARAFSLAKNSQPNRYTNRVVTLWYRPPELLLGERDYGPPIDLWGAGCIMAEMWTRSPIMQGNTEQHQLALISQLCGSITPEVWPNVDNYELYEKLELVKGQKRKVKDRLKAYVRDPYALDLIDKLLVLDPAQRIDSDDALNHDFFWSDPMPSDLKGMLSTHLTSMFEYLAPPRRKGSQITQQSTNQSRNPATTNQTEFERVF
# Sequence of CDK9/cyclin T1 (O60563 whole entry partner): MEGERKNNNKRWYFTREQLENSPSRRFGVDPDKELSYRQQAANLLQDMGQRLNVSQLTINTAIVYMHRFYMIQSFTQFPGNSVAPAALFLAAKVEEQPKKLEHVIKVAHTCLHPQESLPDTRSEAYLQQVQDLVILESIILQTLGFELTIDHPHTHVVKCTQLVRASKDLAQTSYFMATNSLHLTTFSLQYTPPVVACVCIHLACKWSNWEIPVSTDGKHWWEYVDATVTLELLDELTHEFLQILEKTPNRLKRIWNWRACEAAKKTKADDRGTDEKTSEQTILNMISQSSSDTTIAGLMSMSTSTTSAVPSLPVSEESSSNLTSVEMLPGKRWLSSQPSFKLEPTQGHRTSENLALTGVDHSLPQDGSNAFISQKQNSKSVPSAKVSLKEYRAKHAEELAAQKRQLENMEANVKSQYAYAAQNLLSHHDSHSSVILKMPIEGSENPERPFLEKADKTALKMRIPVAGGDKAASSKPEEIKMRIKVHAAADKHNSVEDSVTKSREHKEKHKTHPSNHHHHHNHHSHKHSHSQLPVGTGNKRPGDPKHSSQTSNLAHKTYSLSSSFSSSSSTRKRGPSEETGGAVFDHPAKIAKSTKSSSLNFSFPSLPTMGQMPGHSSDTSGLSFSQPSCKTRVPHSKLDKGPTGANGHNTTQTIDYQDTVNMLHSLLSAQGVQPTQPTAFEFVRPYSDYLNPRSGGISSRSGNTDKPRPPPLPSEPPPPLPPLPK
# Summary of the method: as §2
# [9] = biological target: CDK2-cycline E (Homo sapiens, UniProt P24941); assay: Kinase assay (radioactive phosphate incorporation), CDK2-cyclin E; assay type: biochemical; conditions: read-out: Kinase Inhibition pIC50 CDK2-cycline E (converted)
# Summary of the method: as §1
IC50 [1] [nM],IC50 [2] [nM],IC50 [3] [nM],IC50 [4] [nM],IC50 [5] [nM],IC50 [6] [nM],IC50 [7] [nM],IC50 [8] [nM],IC50 [9] [nM],melting point [°C],SMILES
63.1,1580,20,2000,1260,20,200,200,10,–,"Cc1nc(N)sc1-c1ccnc(Nc2ccc(S(=O)(=O)NCCO)cc2)n1 [Compound 68, 4-[4-(2-Amino-4-methyl-thiazol-5-yl)-pyrimidin-2-ylamino]-N-(2-hydroxy-ethyl)-benzenesulfonamide]"
63.1,20,31.6,79.4,631,6.31,63.1,10,3.98,–,"CCNc1nc(C)c(-c2ccnc(Nc3ccc(S(N)(=O)=O)cc3)n2)s1 [Compound 35, 4-[4-(2-Ethylamino-4-methyl-thiazol-5-yl)-pyrimidin-2-ylamino]-benzenesulfonamide]"
39.8,1580,1000,2510,2000,39.8,251,200,50.1,–,"CCNc1nc(C)c(-c2ccnc(Nc3ccc(S(C)(=O)=O)cc3)n2)s1 [Compound 17, [4-(2-Ethylamino-4-methyl-thiazol-5-yl)-pyrimidin-2-yl]-(4-methanesulfonyl-phenyl)-amine]"

# The next lines start with the compound.
SMILES,IC50 [1] [nM],IC50 [2] [nM],IC50 [3] [nM],IC50 [4] [nM],IC50 [5] [nM],IC50 [6] [nM],IC50 [7] [nM],IC50 [8] [nM],IC50 [9] [nM],melting point [°C]
"CC(=O)NCc1ccc(Nc2nccc(-c3sc(C)nc3C)n2)cc1 [Compound 15, N-{4-[4-(2,4-Dimethyl-thiazol-5-yl)-pyrimidin-2-ylamino]-benzyl}-acetamide]",39.8,631,501,1580,1000,1000,501,794,200,–
"CC(=O)NCc1ccc(Nc2nccc(-c3sc(N)nc3C)n2)cc1 [Compound 16, N-{4-[4-(2-Amino-4-methyl-thiazol-5-yl)-pyrimidin-2-ylamino]-benzyl}-acetamide]",79.4,501,1000,2000,1000,1260,158,251,158,–
"CCNc1nc(C)c(-c2ccnc(Nc3cccc(S(=O)(=O)NCCO)c3)n2)s1 [Compound 75, 3-[4-(2-Ethylamino-4-methyl-thiazol-5-yl)-pyrimidin-2-ylamino]-N-(2-hydroxy-ethyl)-benzenesulfonamide]",–,126,1000,398,794,1260,63.1,63.1,200,124 to 125
"CCNS(=O)(=O)c1cccc(Nc2nccc(-c3sc(N)nc3C)n2)c1 [Compound 30, 3-[4-(2-Amino-4-methyl-thiazol-5-yl)-pyrimidin-2-ylamino]-N-ethyl-benzenesulfonamide]",15.8,794,2000,398,316,1000,200,20,100,–
"CNc1nc(C)c(-c2ccnc(Nc3cccc(S(=O)(=O)NCCO)c3)n2)s1 [Compound 76, N-(2-Hydroxy-ethyl)-3-[4-(4-methyl-2-methylamino-thiazol-5-yl)-pyrimidin-2-ylamino]-benzenesulfonamide]",39.8,100,1260,794,501,1580,100,63.1,316,189 to 190
